The values below come from US9822170B2, “Co-use of a clusterin inhibitor with an EGFR inhibitor to treat cancer” (ALETHIA BIOTHERAPEUTICS INC., priority 2012, dated 2017).

The subject of one test is H1299 cells. Briefly: CellTiter-Glo Luminescent Cell Viability Assay. It counts as cell-based, human. The protocol:
(§1) Following this induction, the cells were treated with erlotinib (20 μM) for 96 h and the number of cells was determined using the CellTiter-Glo® Luminescent Cell Viability Assay (Promega, Madison, Wis.). As a control, additional cells were not induced with sCLU or TGFβ. […] We also compared the response to erlotinib in cells that were induced to undergo an EMT with either sCLU or TGFβ.

The next test relates to H460 cells. Briefly: CellTiter-Glo Luminescent Cell Viability Assay. It counts as cell-based, human. The settings on record: sCLU 0.25 μg/ml or TGFβ 2 nM for 48 h, then erlotinib 20 μM for 96 h. The protocol: as §1
Another test deals with cancer cells. The settings on record: incubated with cancer cells; WO2007/030930, WO2011/063523; cited from earlier work.

In the case of `C#Cc1cccc(Nc2ncnc3cc(OCCOC)c(OCCOC)cc23)c1` [erlotinib], the “responsiveness to erlotinib after stimulation of EMT” value is “did not change the responsiveness” in the test on H1299 cells (H1299 cells, sCLU 0.25 μg/ml or TGFβ 2 nM for 48 h, then erlotinib 20 μM for 96 h) and “did not change the responsiveness” in the test with H460 cells. The “sensitivity of the cells to erlotinib” value with H1299 cells (H1299 compared with H460 cells, erlotinib 20 μM for 96 h) is recorded as “H1299 cells were more sensitive to erlotinib than the H460 cells”.

B1: 16B5: murine anti-clusterin (sCLU) antibody that blocks EMT; VL SEQ ID NO.:25, VH SEQ ID NO.:29 (antibody, V domains shown)
VH: EVQLQQSGAELVKPGASVRLSCTTSGFNIKDIYMHWVKQRPEQGLEWIGRIDPAYGNTKYDPKFQGKATITADTSSNTAYLQLSSLTSEDTAVYYCARRYDTAMDYWGQGTSVTVSS
VL: DIVMSQSPSSLAVSAGEKVTMSCKSSQSLLNSRTRKNYLAWYQQKPGQSPKLLIYWASTRESGVPDRFTGSGSGTDFTLTISSVQAEDLAVYYCKQSYNLWTFGGGTKLEFK
modifications: murine 16B5 heavy chain variable region; murine 16B5 light chain variable region
B1: the “blocking of EMT (maintenance of membrane E-cadherin expression)” value in the test with cancer cells was “could block EMT”.
